Assay results reported in patent US6689817B1, “Process for preparing guaifenesin tannate” (Jame Fine Chemicals, Inc., priority 2001, dated 2004).
Read-outs that look alike come from different tables or passages of the source.

Experiments:
[1] = Solubility in water and organic solvents (descriptive)
[2] = background statement, cited from earlier work; for solubility in alcohols: alcohols such as methanol, ethanol, isopropanol
[3] = Methylene chloride solubility test of milled guaifenesin tannate powders (Example 4); format: physicochemical
Protocol: Two gram samples of finely milled guaifenesin tannate powders were taken from each of the products prepared in Examples 1-3. Each sample was mixed with 110 g of methylene chloride and was stirred for 10 minutes at ambient temperature. Each mixture was then filtered. The insoluble material was dried and weighed and the filtrate was evaporated to dryness and the residue was weighed The results were as follows: […]

Compound | solubility in alcohols [1] | solubility in methylene chloride [1] | solubility in toluene [1] | solubility in water [1] | solubility in alcohols [2] | solubility in water [2] | Insoluble Ppt. [3] [g] | Soluble Ppt. [3] [mg] | further results
COc1ccccc1OCC(O)CO (centres unmarked) [guaifenesin, 3-(2-methoxyphenoxy)-1,2-propanediol] | soluble | soluble | sparingly soluble | soluble | readily soluble | about 5 wt. % | – | – | –
O=C(OC[C@H]1O[C@@H](OC(=O)c2cc(O)c(O)c(OC(=O)c3cc(O)c(O)c(O)c3)c2)[C@H](OC(=O)c2cc(O)c(O)c(OC(=O)c3cc(O)c(O)c(O)c3)c2)[C@@H](OC(=O)c2cc(O)c(O)c(OC(=O)c3cc(O)c(O)c(O)c3)c2)[C@@H]1OC(=O)c1cc(O)c(O)c(OC(=O)c2cc(O)c(O)c(O)c2)c1)c1cc(O)c(O)c(OC(=O)c2cc(O)c(O)c(O)c2)c1 [tannic acid] | soluble | insoluble | insoluble | soluble | highly soluble | highly soluble | – | – | solubility in chloroform ([1]; chloroform): insoluble
guaifenesin tannate [Example 2] | – | – | – | – | – | – | 1.95 | <10 | –
guaifenesin tannate [Example 3] | – | – | – | – | – | – | 1.945 | <7 | –
guaifenesin tannate [Example 1] | – | – | – | – | – | – | – | – | Insoluble Ppt. ([3]; 2 g sample mixed with 110 g methylene chloride, stirred 10 minutes at ambient temperature, filtered, insoluble material dried and weighed): 1.94 g; Soluble Ppt. ([3]; 2 g sample mixed with 110 g methylene chloride, stirred 10 minutes at ambient temperature, filtrate evaporated to dryness, residue weighed): <8 mg
guaifenesin tannate | – | – | – | – | – | – | – | – | solubility in methylene chloride (conclusion from Example 4) [3]: insoluble
